Consider seven compounds from article PMC8275550, “Developmental Neurotoxicity of Fipronil and Rotenone on a Human Neuronal In Vitro Test System” (Neurotoxicity Research, 2021).

Data set [1] concerns NT2 neurons. Nature of the data set: cells. The class given is cell-based, human. The following applies: for Effect on neurite outgrowth, endpoint specific control compounds: concentration-response curves, supplementary Fig. 1. An excerpt: Two photographs/well at × 20 magnification were taken.
A short description of data set [2]: in vitro. The following applies: human.
Data set [3] in a line: Resazurin reduction viability assay in the neuronal differentiation assay. The class given is cell-based, human. The following applies: human. On the procedure:
(§1) As established in our previous study (Stern et al. [2014]), cells were seeded into 96-well plates (Corning Costar, Kaiserslautern, Germany) at 80,000 cells per well and incubated in DMEM/F12 with 10 µM retinoic acid (RA) for 4 days (one media change). Cells were incubated for further 5 days (one media change) in media containing 10 µM RA and up to seven concentrations of a test compound. On day 9 (5-day exposition), cell viability was measured using a resazurin reduction assay (Trinova Biochem, Giessen, Germany). Subsequently, cells were fixed for 15 min in PFA and immunolabeled for ß-tubulin type III as above (Fig. 1a). For control purposes, photographs were taken at × 20 magnification as above. Neuronal differentiation was determined by measuring red fluorescence (excitation 568 nm, emission 603 nm) in a multiwell-plate reader (Infinite 200, TECAN, Germany). As a confirmation of the viability data, cell number was also quantified by measuring DAPI fluorescence (excitation 350 nm, emission 488 nm).
For orientation: Alamar Blue is a resazurin reagent that responds to reducing activity.

Data set [4] in a line: Resazurin reduction viability assay in the cell migration assay. Format: cell-based. The following applies: human. On the procedure:
(§2) As established before (Stern et al. [2014]), NT2 precursor cells were seeded in 96-mm bacteriological grade Petri dishes (Greiner, Hamburg, Germany) at a density of 4 × 10^6–5 × 10^6 cells per dish. Within 24 h, cells formed free-floating spherical aggregates of 300–800 µm diameter. On the first day, 10 ml of culture medium was added to each Petri dish. On the next days, medium with 10 μM retinoic acid (RA) was added and changed every 2–3 days by transferring the cell suspension to centrifuge tubes and centrifuge at 200 × g for 7 min. After 9 days in culture, aggregates were gently resuspended using a Pasteur pipette, and seeded at 60,000 cells per well into black 96-well plates with flat transparent bottom (Nunc). Plates were lined with poly-D-lysine and laminin (10 µg/ml each), equipped with silicone stoppers from the Oris Cell Migration Assay (AMS Biotechnology, Abingdon, UK). Cells were allowed to adhere overnight. On the next day, stoppers were pulled leaving a monolayer of cells with a circular hole of 2-mm diameter. […] After one wash in PBS, cells were fixed for 15 min in PFA, washed twice in PBS-T and stained with DAPI (0.5 µg/ml) for 5 min, followed by two washes in PBS. A black 96-hole plastic mask leaving a central circular area of 2-mm diameter for each well was clipped to the bottom of the plate. This allows viewing only those cells that had migrated into the free areas left by the silicone stoppers during seeding (Fig. 1b). Migration was quantified by taking two photographs of each well and measuring the distance of the migration front from the black margin of the mask in using ImageJ. Occasional asymmetries caused by slight inaccuracies of silicone stopper placement were compensated by averaging measurements in four quadrants per well. […] Average null-migration values were subtracted from migrated distance before evaluation.

For data set [5] the following is noted: cited from earlier work.
Data set [6] relates to NT2 precursor cells. Briefly: cells. The class given is cell-based, human. As to the method:
as §2

Data set [7] deals with differentiating NT2 cells. Nature of the data set: cells. The class given is cell-based, human. As to the method:
as §1

Data set [8] has as its system NT2 precursor cells. To be noted: 100 nM cytochalasin D, 44 h, without affecting viability; ref Stern et al. [2014]; cited from earlier work.
In data set [9] the test system is differentiating NT2 cells. On the set-up: method as in Stern et al. [2014]. The following applies: 333 µM sodium valproate; ref Stern et al. [2014]; cited from earlier work.
Data set [10] deals with differentiating NT2 cells. To be noted: 333 µM sodium valproate; ref Stern et al. [2014]; cited from earlier work.
Where [11] appears, read: co-applied with 2.4 µM rotenone.
Setting [12] is: yes = at least one concentration of rescuing compound with specific endpoint significantly less affected.

Structures are written as SMILES. pEC50, pIC50: −log10 of the molar value. Entries after “also recorded” stand apart in the source; their conditions may differ. Read-outs that look alike come from different tables or passages of the source.

Consider `CC(C)=CCC/C(C)=C/CC/C(C)=C/CC[C@]1(C)CCc2c(C)c(O)c(C)c(C)c2O1` [α-tocotrienol, (2R)-2,5,7,8-Tetramethyl-2-[(3E,7E)-4,8,12-trimethyltrideca-3,7,11-trienyl]-3,4-dihydrochromen-6-ol], for which the “Effect on rotenone-induced NT2 neurite outgrowth inhibition” value in [1] (setting [11]) is on record as “could not change”.

Consider `N#Cc1nn(-c2c(Cl)cc(C(F)(F)F)cc2Cl)c(N)c1S(=O)(=O)C(F)(F)F` [Fipronil sulfone, 5-Amino-1-[2,6-dichloro-4-(trifluoromethyl)phenyl]-4-(trifluoromethylsulfonyl)pyrazole-3-carbonitrile], for which the pIC50 in data set [2] is 4.37; in data set [3] (differentiation assay, 5 days exposure, read-out: IC50 general cytotoxicity (resazurin), unspec. EP), 4.81; in [4] (migration assay, 44 h exposure, > = highest tested concentration, read-out: IC50 general cytotoxicity (resazurin), unspec. EP), under 4.20; in data set [1] (Homo sapiens, 24 h exposure, total neurite length/neuron, normalized to solvent control, read-out: IC50 neurite outgrowth (spec. EP)), 4.47; in [6] (Homo sapiens, 44 h exposure, read-out: IC50 migration (spec. EP)), 4.85; in data set [7] (Homo sapiens, NT2, 120 h, 5 days exposure, read-out: IC50 neuronal differentiation (ß-tub III, spec. EP)), 5.01. The viability (commonly a per cent measure of how many cells are alive, often set against a control) in data set [3] (7.81 µM fipronil sulfone, read-out: General viability (% of control)) is about 100%; in data set [4] (15.63 µM fipronil sulfone, read-out: Viability (% of control)), 85%. In addition, the “Blood concentration in workers with occupational fipronil exposure” value in data set [5] (ref Herin et al. [2011]) is listed as “up to 0.1 µM”. Besides, the “Concentration measured in umbilical cord blood” value in [5] (urban population of South Korea, ref Kim et al. [2019]) is “up to 1.1 nM”. Besides, the “Concentrations with significant differences between viability and migration” value in data set [6] (44 h exposure) is given as at least 15.63 µM. Also, the activity at 15.63 µM in data set [6] (Homo sapiens, 15.63 µM fipronil sulfone, read-out: Migration (% of control)) is under 40%. For the same compound, the “Rescue by NAC, migration” value in [6] (setting [12]) is listed as “yes”. The “Rescue by Y-27632, migration” value in [6] (setting [12]) is “Yes”. Moreover, the activity at 7.81 µM in [7] (Homo sapiens, NT2, 7.81 µM fipronil sulfone, read-out: Neuronal differentiation (% of control)) stood at 70%. In data set [7] (setting [12]), the “Rescue by NAC, neuronal differentiation” value is on record as “no”.

As for `C=C1[C@@H](C)[C@H]2[C@H](Cc3ccccc3)NC(=O)[C@]23[C@H](OC(C)=O)/C=C/[C@@](C)(O)C(=O)[C@@H](C)C/C=C/[C@H]3[C@@H]1O` [Cytochalasin D, [(1R,2R,3E,5R,7S,9E,11R,12S,14S,15R,16S)-16-Benzyl-5,12-dihydroxy-5,7,14-trimethyl-13-methylidene-6,18-dioxo-17-azatricyclo[9.7.0.0^1,15]octadeca-3,9-dien-2-yl] acetate], the “Effect on cell motility, null-migration reference” value in [8] is given as “completely inhibits cell motility”. The activity at 0.1 µM in data set [1] (Homo sapiens, Neuron, 100 nM cytochalasin D, read-out: Neurite outgrowth (% of control), endpoint-specific control) is under 25%. Besides, the “Effect on neurite outgrowth, endpoint specific control compounds” value in data set [1] is on record as “specifically inhibits neurite outgrowth”.

Regarding `CC(=O)N[C@@H](CS)C(=O)O` [NAC, (2R)-2-Acetamido-3-sulfanylpropanoic acid], the “Effect on rotenone-induced NT2 neurite outgrowth inhibition” value in [1] (setting [11]) is “could not change”. Besides, the pEC50 in [6] (Homo sapiens, all three tested endpoints as worded in abstract, read-out: EC 50 ameliorating the inhibitory effects of fipronil on all three tested endpoints (abstract)) was 3.79 to 4.08; in [6] (Homo sapiens, co-applied with 15 µM fipronil sulfone, only slight alleviation, read-out: EC50 alleviation of fipronil sulfone-inhibited migration (NAC)), 4.07; in [6] (Homo sapiens, co-applied with 50 µM fipronil, read-out: EC50 alleviation of fipronil-inhibited migration), 3.79; in data set [7] (Homo sapiens, NT2, co-applied with 15 µM fipronil, read-out: EC50 rescue of fipronil-inhibited neuronal differentiation), 4.02. In [6] (co-applied with 122 nM rotenone, any concentration), the “Effect on rotenone inhibition of migration” value was “could not be alleviated”. In addition, the “Effect on fipronil sulfone inhibition of migration” value in data set [6] (co-applied with 15 µM fipronil sulfone) is “only slightly alleviated”. Also, the “Effect on fipronil-induced inhibition of migration” value in data set [6] (co-applied with 50 µM fipronil) was “could completely counteract”. The “Effect on fipronil inhibition of NT2 differentiation” value in [7] (370 µM NAC and higher, with 15 µM fipronil) is on record as “completely negated”. Besides, the “Effect on rotenone inhibition of ß-tubulin III-immunofluorescence” value in [7] (co-applied with 11 nM rotenone, any concentration) is on record as “could not alleviate”.

For the compound `CCCC(CCC)C(=O)[O-].[Na+]` [Sodium valproate, Sodium; 2-propylpentanoate], the “General viability (% of control), endpoint-specific control” value in [9] was “above 85%”. For the same compound, the “Neuronal differentiation (% of control), endpoint-specific control” value in [10] is recorded as “less than 50%”.

With `COc1cc2c(c(OC)c1OC)-c1ccc(OC)c(=O)cc1[C@@H](NC(C)=O)CC2` [Colchicine], the “Effect on neurite outgrowth, endpoint specific control compounds” value in [1] is “specifically inhibits neurite outgrowth”.

Consider `C[C@@H](N)[C@H]1CC[C@H](C(=O)Nc2ccncc2)CC1` [Y-27632, 4-[(1R)-1-Aminoethyl]-N-pyridin-4-ylcyclohexane-1-carboxamide], for which the activity at 50 µM in data set [1] (Homo sapiens, Neuron, 50 µM Y-27632, without affecting general viability, read-out: Neurite outgrowth (% of control), endpoint-specific control) is over 125%; in data set [6] (Homo sapiens, 50 µM Y-27632, without affecting general viability, read-out: Precursor cell migration (% of control), endpoint-specific control), over 125%. The pEC50 in [1] (Homo sapiens, Neuron, co-applied with 2.4 µM rotenone, read-out: EC50 compensation of rotenone-inhibited neurite outgrowth) was 4.92; in [6] (Homo sapiens, co-applied with 122 nM rotenone, read-out: EC50 alleviation of rotenone-inhibited migration) it was 5.08; in data set [6] (Homo sapiens, co-applied with 15 µM fipronil sulfone, read-out: EC50 alleviation of fipronil sulfone-inhibited migration (Y-27632)) it was 5.37. For the same compound, the “Effect on rotenone-induced NT2 neurite outgrowth inhibition” value in data set [1] (setting [11]) is recorded as “could alleviate”. Besides, the “Effect on fipronil-induced inhibition of migration” value in data set [6] (co-applied with 50 µM fipronil) is “could not alleviate; also recorded: could not be alleviated”.
